Data on 42 molecules can be found in PubChem BioAssay AID1189 (EPA DSSTox, 2008).

The structures appear in SMILES notation. Activity calls are given as the source filed them.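 The calls were made as follows: active = a tumor-causing dose value with its tumor site reported for any sex and species group of a rodent or other animal cancer study; inconclusive = only studies judged inadequate by the national testing program; inactive = tested in at least one study, none positive.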

This data set is described as follows: DSSTox (CPDBAS) Carcinogenic Potency Database Summary SingleCellCall Results. The following applies: animal chronic carcinogenicity bioassays, CPDB summary call. The procedure, abridged: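 Categorical carcinogenicity call compiled from published chronic rodent and other animal cancer bioassays; based on the most positive result across experiments for each sex-species, assigned on minimal evidence for or against activity.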
Consider `C[C@]12C=CC(=O)C=C1CC[C@@H]1[C@@H]2C(=O)C[C@@]2(C)[C@H]1CC[C@]2(O)C(=O)CO`, for which the outcome was inactive.
With `P` the entry was “inactive”; with `c1ccc2[nH]ccc2c1`, “inactive”; with `NCC1(CC(=O)O)CCCCC1`, “active”.
Under `COc1ccc(C(Cl)=C(c2ccc(OC)cc2)c2ccc(OC)cc2)cc1` stands “inactive”; under `CCCCCCCCCCN(C)N=O`, “active”.
Under `Cc1ccc(N=Nc2c(O)c(S(=O)(=O)O)cc3ccc(S(=O)(=O)O)cc23)c(C)c1` stands “active; inactive”; under `CC(=O)Nc1ccc2c(c1)Cc1ccccc1-2`, “active”; under `CC(C)(C)c1cc(CO)cc(C(C)(C)C)c1O`, “inactive”.
Take `CC(Cl)Cl`: the outcome is “inactive; active”.
With `CC1=CC(=C(c2ccc(N)cc2)c2ccc(N)cc2)C=CC1=N` the entry was “inactive”.
Turning to `CC(=O)CN(CC(C)=O)N=O`, the result was active.
With `CCCOC(=O)C1c2cc3c(cc2CC(C)C1C(=O)OCCC)OCO3` (configuration not stated) the entry was “inactive”.
With `NNc1nc(-c2ccccc2)cs1` the entry was “inactive”; with `CC(=O)Nc1nc(NC(C)=O)nc(-c2ccc([N+](=O)[O-])o2)n1`, “active”.
Turning to `CC1CN(N=O)CC(C)N1N=O` (configuration not stated), the outcome was active.
On to `O=[N+]([O-])c1ccc2c3c(cccc13)CC2`, for which the result was active.
Under `Nc1cc(S(=O)(=O)O)cc2cc(S(=O)(=O)O)c(N=Nc3ccc(-c4ccc(N=Nc5c(S(=O)(=O)O)cc6cc(S(=O)(=O)O)cc(N)c6c5O)cc4)cc3)c(O)c12` stands “active”; under `Nc1nc(N)nc(-c2cc(Cl)ccc2Cl)n1`, “inactive”.
Under `CC(=O)NNc1ccccc1` stands “active”; under `CCC1(CCC(C)C)C(=O)NC(=O)NC1=O`, “inactive”; under `CNNC`, “active”.
With `ClC(Cl)(Cl)C(Cl)(Cl)Cl`, the outcome was active.
Under `Cc1ccc(S(=O)(=O)NC(=O)NN2CCCCCC2)cc1` stands “inactive”.
Under `CN(CCc1ccccc1)N=O` stands “active”; under `CN(C)c1ccccc1`, “active”; under `CC(C)(C)c1cc([N+](=O)[O-])cc([N+](=O)[O-])c1OS(C)(=O)=O`, “inactive”.
Consider `CCCl`, for which the outcome was “active; inactive”.
With `CBr`, the outcome was “inactive; active”.
Under `O=C1NCCN1/N=C/c1ccc([N+](=O)[O-])o1` stands “active”; under `O=S(=O)(O)c1c(N=Nc2c(O)ccc3ccccc23)ccc2ccccc12`, “inactive; active”.
`OCCN(CCO)c1nc(-c2cccs2)nc2ccccc12`: the outcome was inactive.
Under `Clc1ccc(C(c2ccc(Cl)cc2)C(Cl)Cl)cc1` stands “active”.
Under `CC(=O)C1C(=O)C=C(C)OC1=O` (configuration not stated) stands “inactive; active”; under `S=C=NCCc1ccccc1`, “inactive; active”; under `FCCl`, “active”.
With `CCCC(CCC)C(=O)O` the entry was “active”; with `CC(=O)NCc1nc(-c2ccc([N+](=O)[O-])o2)no1`, “active”.
With `CC(O)CN(CC(O)CO)N=O` (configuration not stated), the result was active.
With `CNCCC(Oc1ccc(C(F)(F)F)cc1)c1ccccc1` (configuration not stated) the entry was “inactive; active”.
With `c1ccccc1` the entry was “active”; with `O=CNNc1nc(-c2ccc([N+](=O)[O-])o2)cs1`, “active”.
